Numbering of substitutions follows the chain as printed. Read-outs that look alike come from different tables or passages of the source. Non-standard residues stand in square brackets, D forms with d. Residues, ends and D or L forms follow the SMILES beside them. Dolaproine = CO[C@@H]([C@@H]1CCCN1)[C@@H](C)C(=O)O; Dil = CC[C@H](C)[C@H](NC)[C@@H](CC(=O)O)OC; NMeV = CN[C@H](C(=O)O)C(C)C

As a reminder, the IC50 is the midpoint of a concentration-inhibition curve.

For assay [1], the system named is MIA-PaCa2 (DLK1 negative or normal). Description: In vitro cytotoxicity (cell proliferation inhibition, SRB dye), DLK1-negative cells. The assay is classed as cell-based, human. As for the experimental part:
(§1) The cancer cell line cell proliferation inhibition activity of the drugs stated in Table 3 below and the ADCs prepared in <Embodiment 3> above was measured. For this purpose, commercially available human pancreatic cancer cell line MIA-PaCa2 (DLK1 negative or normal) and MIA-PaCa-2-DLK1 over-expressing cell line were used. As the drug, MMAF-OMe was used as the ADC, and the ADCs of Table 2 were used. In a 96-well plate, each well was seeded with 4,000 to 5,000 of the respective cancer cell lines for the 72-hour treatment group, 2,000 to 3,000 cells for the 96-hour treatment group, and 800 to 1,000 cells for the 168-hour treatment group. After culturing for 24 hours, they were treated with the drug and ADC at a concentration of 0.0015 to 10.0 nM (serially diluted threefold). 72, 96 and 168 hours later, respectively, the number of live cells was measured using SRB (Sulforhodamine B) dye.
For orientation: Sulforhodamine B stains cellular protein and so reports cell mass.

For assay [2], the system named is MIA-PaCa-2-DLK1 over-expressing cell line. Description: In vitro cytotoxicity (cell proliferation inhibition, SRB dye), DLK1 over-expressing cells. The assay is classed as cell-based, human. The note with it: MIA-PaCa2 DLK1 positive. As for the experimental part: as §1
For assay [3], the target named is T1, DLK1 over-expressed on MIA-PaCa-2 cells (UniProt P80370 24-383, limits assumed).
T1 sequence (looked up): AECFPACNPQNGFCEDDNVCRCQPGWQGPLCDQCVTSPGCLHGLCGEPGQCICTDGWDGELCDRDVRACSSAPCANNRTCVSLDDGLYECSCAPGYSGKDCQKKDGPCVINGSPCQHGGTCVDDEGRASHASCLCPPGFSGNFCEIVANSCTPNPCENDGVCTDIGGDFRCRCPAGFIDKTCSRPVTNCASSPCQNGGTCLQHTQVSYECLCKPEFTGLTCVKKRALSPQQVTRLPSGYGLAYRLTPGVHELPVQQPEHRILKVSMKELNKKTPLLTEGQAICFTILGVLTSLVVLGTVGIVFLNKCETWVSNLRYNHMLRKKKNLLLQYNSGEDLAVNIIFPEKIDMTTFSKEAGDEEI
Nature of the assay: cell-based or functional assay.

Assay [4] concerns cells where DLK1 is overexpressed. To be noted: confirmed in Korean Patent Application No. 10-2018-0107639; cited from earlier work.

Take `CC[C@H](C)[C@@H]([C@@H](CC(=O)N1CCC[C@H]1[C@H](OC)[C@@H](C)C(=O)N[C@@H](Cc1ccccc1)C(=O)OC)OC)N(C)C(=O)[C@@H](NC(=O)[C@@H](NC)C(C)C)C(C)C` [MMAF-OMe] (H-[NMeV]V[Dil][Dolaproine]F-OMe): the IC50 stood at 0.41 nM in assay [1] (72 hr treatment, read-out: IC50 MIA-PaCa2-DLK1 negative 72 hr); 0.12 nM in assay [1] (96 h treatment, read-out: IC50 MIA-PaCa2-DLK1 negative 96 h); 0.12 nM in assay [1] (168 hr treatment, read-out: IC50 MIA-PaCa2-DLK1 negative 168 hr); 0.3 nM in assay [2] (72 hr treatment, read-out: IC50 MIA-PaCa2-DLK1 positive 72 hr); 0.13 nM in assay [2] (96 h treatment, read-out: IC50 MIA-PaCa2-DLK1 positive 96 h); 0.06 nM in assay [2] (168 hr treatment, read-out: IC50 MIA-PaCa2-DLK1 positive 168 hr).

B1: ADC6 (18A5 conjugated to Compound 6) (other)
VH: QVQLVQSGGAVVQPGHSLRLSCEASGFKFKDYGMHWVRQAPGKGLEWLAVISHDGRNKNYADSVKGRLTISRDNSKNTLSFQMNSLRAEDTAVYYCVRDWSYAFDIWGQGTLVTVSS
VL: DIQMTQSPSFLSASVGDRVNITCRASQDISRRLAWYQQKPGKAPKLLIYGAASLQSAVASRFSGSGSGTEFTLTISSLQPEDFANYYCQQIYTTPLTFGGGTKVEIK
As to B1, in assay [3], the “IC50 (nM), cell proliferation inhibition (SRB), MIA-PaCa2-DLK1 positive, 168 hr” value stood at 0.21 nM.

B2: 18A5_AM_1A12: 18A5 mutant anti-DLK1 antibody, heavy chain SEQ ID NO. 127, light chain SEQ ID NO. 128 (antibody, V domains shown)
VH: B1 VH with A10G, H16G, E23A
VL: DIQMTQSPSFLSASVGDRVTITCRASHDISSSLAWYQQKSGKAPKLLIYSASNLKSGVPSRFSGSGSGTDFSLTISSLQPEDFATYYCQQSYTTVLTFGGGTKLEIK
With B2, the “binding to cells where DLK1 is overexpressed” value (“binding” for short) in assay [4] is reported as “capable of binding to cells where DLK1 is overexpressed”.

B3: 18A5: anti-DLK1 human monoclonal antibody, heavy chain SEQ ID NO. 101, light chain SEQ ID NO. 102 (antibody, V domains shown)
VH: B1 VH
VL: B1 VL
In the case of B3, the “binding” value in assay [4] is reported as “capable of binding to cells where DLK1 is overexpressed”.

B4: 18A5_LS_1A10: 18A5 mutant anti-DLK1 antibody, heavy chain SEQ ID NO. 101, light chain SEQ ID NO. 126 (antibody, V domains shown)
VH: B1 VH
VL: DIQMTQSPSSLSASLGDRVTITCRASQGISSALAWYQQKPGKAPKLLIYAASSLQSGVPSRFSGSGSGTDFTLTINSLQPEDFATYYCQQSYTTPLTFGGGTKVEIK
With B4, in assay [4], the “binding” value is recorded as “capable of binding to cells where DLK1 is overexpressed”.

B5: 27F7: anti-DLK1 human monoclonal antibody, heavy chain SEQ ID NO. 109, light chain SEQ ID NO. 110 (antibody, V domains shown)
VH: QMQLVESGGGLVKPGGSLTLSCDATGFNFGSYYMNWVRQAPGKGLEWLAHISSTGRTIYYADSVKGRFTISRDNAKSSLDLQMNSLRAEDTAVYYCARDQGYPFGMDVWGHGTTVTVSS
VL: QLVLTQPSSVSGAPGQRVTISCTGSSSNIGAGYDVDWYQQLPGTAPKLLIYGNTNRPSGVPDRFSGSKSGTSASLAITGLQAEDDSDYYCQSYDSSLSAWVFGGGTKLTVL
Regarding B5, in assay [4], the “binding” value is “capable of binding to cells where DLK1 is overexpressed”.

Values taken from patent US20220339291A1, “ANTIBODY-DRUG CONJUGATES THAT TARGET DLK1 AND USES THEREOF” (LegoChem Biosciences, Inc., priority 2019, published 2022).
